Calls of active or inactive are those of the source. The rule behind the calls is not given here.

In data set [1] the test system is BV-2. The data set is described as follows: Anti-inflammatory activity against LPS-induced mouse BV-2 cells assessed as decrease in LPS-induced TNFalpha production at 5 to 10 uM incubated for 4 hrs followed by LPS induced for 24 hrs by Western blotting analysis. The data set is classed as functional, cell-based. The following applies: dose 5-10 µM.
Data set [2] relates to Mus musculus. Description: Anti-neuroinflammatory activity against LPS-induced male C57BL/6 mouse assessed as suppression of LPS-induced p-NF-kappaB protein level at 20 mg/kg, po administered for 3 days followed by induced with LPS by tail vein injection by Western blot analysis. The conditions noted are these: time 3.0 day. It is filed as functional, organism-based.
Data set [3] can be described thus: Acute toxicity in C57BL/6 mouse assessed as morphological changes in liver by measuring signs of inflammation at 500 mg/kg, po single dose measured on day 8 by H and E staining based assay. The data set is classed as organism-based. The following applies: in vivo, 192 h, time 8 day.
Data set [4] in a line: Half life in rat at 20 mg/kg, po single dose. The data set is classed as ADME, organism-based. The following applies: in vivo.
Data set [5] in a line: Cmax in rat at 20 mg/kg, po single dose. It is filed as ADME, organism-based. The conditions noted are these: in vivo.
The nature of data set [6]: Biodistribution in C57BL/6 mouse lung at 20 mg/kg, IG measured after 15 mins. It is filed as ADME, organism-based. The conditions noted are these: in vivo, po, 0.25 h.
The subject of data set [7] is BV-2. The data set is described as follows: Anti-inflammatory activity against LPS-induced mouse BV-2 cells assessed as decrease in LPS-induced Cyclooxygenase-2 mRNA expression at 20 uM incubated for 4 hrs followed by LPS induced for 12 hrs by RT-PCR analysis relative to control. It is filed as functional, cell-based. The following applies: time 16.0 hrs.
Data set [8] deals with BV-2. Description: Anti-inflammatory activity against LPS-induced mouse BV-2 cells assessed as decrease in LPS-induced IL-6 mRNA expression at 5 uM incubated for 4 hrs followed by LPS induced for 12 hrs by RT-PCR analysis relative to control. The data set is classed as functional, cell-based. The following applies: time 16.0 hrs.
In data set [9] the test system is BV-2. The data set is described as follows: Anti-inflammatory activity against LPS-induced mouse BV-2 cells assessed as decrease in LPS-induced IL-6 mRNA expression at 10 to 20 uM incubated for 4 hrs followed by LPS induced for 12 hrs by RT-PCR analysis relative to control. The data set is classed as functional, cell-based. The conditions noted are these: dose 10-20 µM, time 16.0 hrs.

Data set [10] deals with Mus musculus. The data set is described as follows: Anti-neuroinflammatory activity against LPS-induced male C57BL/6 mouse assessed as suppression of LPS-induced p-IkappaB-alpha protein level at 20 mg/kg, po administered for 3 days followed by induced with LPS by tail vein injection by Western blot analysis. It is filed as functional, organism-based. The conditions noted are these: time 3.0 day.

The subject of data set [11] is BV-2. Description: Anti-inflammatory activity against LPS-induced mouse BV-2 cells assessed as decrease in LPS-induced iNOS mRNA expression at 10 to 20 uM incubated for 4 hrs followed by LPS induced for 12 hrs by RT-PCR analysis relative to control. The data set is classed as functional, cell-based. The following applies: dose 10-20 µM, time 16.0 hrs.
In data set [12] the test system is Mus musculus. The data set is described as follows: Anti-neuroinflammatory activity against LPS-induced male C57BL/6 mouse assessed as suppression of LPS-induced p-NF-kappaB protein level at 10 mg/kg, po administered for 3 days followed by induced with LPS by tail vein injection by Western blot analysis. The data set is classed as functional, organism-based. The conditions noted are these: time 3.0 day.

Data set [13] has as its system Mus musculus. Description: Anti-neuroinflammatory activity against LPS-induced male C57BL/6 mouse assessed as suppression of LPS-induced microglial activation by measuring decrease in IBA1 fluorescence intensity at 20 mg/kg, po administered for 3 days followed by induced with LPS by tail vein injection by immunofluorescence staining based assay. The data set is classed as functional, organism-based. The conditions noted are these: time 3.0 day.

Data set [14] has as its system BV-2. The data set is described as follows: Anti-inflammatory activity against LPS-induced mouse BV-2 cells assessed as decrease in LPS-induced iNOS production incubated for 4 hrs followed by LPS induced for 24 hrs by Western blotting analysis. The conditions noted are these: dose 5-20 µM, time 28.0 hrs. The data set is classed as functional, cell-based.
Data set [15] concerns BV-2. Description: Anti-inflammatory activity against LPS-induced mouse BV-2 cells assessed as decrease in LPS-induced TLR4 production incubated for 4 hrs followed by LPS induced for 24 hrs by […]. The data set is classed as functional, cell-based. The following applies: dose 5-20 µM, time 28.0 hrs.
A short description of data set [16]: MRT in rat at 20 mg/kg, po single dose. The conditions noted are these: in vivo. It is filed as ADME, organism-based.
In data set [17] the test system is BV-2. Description: Anti-inflammatory activity against LPS-induced mouse BV-2 cells assessed as decrease in LPS-induced TNFalpha production incubated for 4 hrs followed by LPS induced for 24 hrs by Western blotting analysis. It is filed as functional, cell-based. The following applies: dose 5-20 µM, time 28.0 hrs.

Turning to `O=c1[nH]c2ccc(Nc3ncnc4c3ccn4Cc3ccc(F)cc3)cc2[nH]1`, the Activity result in data set [1] is “Not active; No Significant Effect Observed Vs Lps”; in data set [3], “Non-toxic”; in data set [8], “Not active; No Significant Effect Observed Vs Lps”; in data set [12], “Not active; No Significant Effect Observed Vs Lps”; in data set [14], “Dose-dependent-effect”; in data set [15], “Dose-dependent-effect”. The Activity result in data set [17] is “Dose-dependent-effect”. Moreover, the result in data set [2], in [7], in data set [9], in data set [10], in data set [11] and in [13] was Active. The molecule further showed a half-life in data set [4] of 5.91 h. The same molecule yielded a Cmax in data set [5] of 7490 ng/mL. Also, the Drug uptake result in [6] is recorded as “Active”. In data set [16], this molecule gave an MRT of 6.2 h.

The values above are taken from ChEMBL document CHEMBL6096669, “Design and synthesis of novel derivatives of bisepoxylignans as potent anti-inflammatory agents involves the modulation of the M1/M2 microglia phenotype via TLR4/NF-κB signaling pathway” (Eur J Med Chem, 2025).
